Converted amounts (≈) assume the structure as drawn. Some results are limits rather than exact numbers.

Consider 22 compounds from ChEMBL document CHEMBL5223191, “Discovery of a Novel Series of Imidazopyrazine Derivatives as Potent SHP2 Allosteric Inhibitors” (ACS Med Chem Lett, 2023).

The target in data set [1] is T1, Tyrosine-protein phosphatase non-receptor type 11 (Homo sapiens, UniProt Q06124).
T1 sequence (Q06124 whole entry): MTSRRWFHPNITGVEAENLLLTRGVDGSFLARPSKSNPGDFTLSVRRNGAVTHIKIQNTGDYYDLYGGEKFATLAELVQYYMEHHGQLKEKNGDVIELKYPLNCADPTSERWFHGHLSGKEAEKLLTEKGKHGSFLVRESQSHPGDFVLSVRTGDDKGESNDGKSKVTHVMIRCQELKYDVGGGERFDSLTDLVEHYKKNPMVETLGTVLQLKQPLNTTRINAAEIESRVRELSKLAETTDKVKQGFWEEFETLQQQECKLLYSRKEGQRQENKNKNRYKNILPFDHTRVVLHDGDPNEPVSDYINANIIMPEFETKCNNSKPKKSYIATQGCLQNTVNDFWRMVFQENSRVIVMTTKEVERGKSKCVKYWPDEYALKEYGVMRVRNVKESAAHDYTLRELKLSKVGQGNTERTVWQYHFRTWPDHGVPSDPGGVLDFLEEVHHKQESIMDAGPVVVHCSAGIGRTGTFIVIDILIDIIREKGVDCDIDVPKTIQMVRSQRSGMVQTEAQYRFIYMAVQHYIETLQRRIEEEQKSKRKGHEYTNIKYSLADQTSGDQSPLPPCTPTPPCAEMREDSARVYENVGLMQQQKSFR
Description: Allosteric inhibition of IRS1 peptide-activated human recombinant SHP2 (Met1 to Leu525) expressed in Escherichia coli assessed as inhibition of dephosphorylation of 6,8-difluoro-4-methylumbelliferyl phosphate using DiFMUP as substrate preincubated with enzyme for 30 mins followed by substrate addition and measured after 30 mins by DiFMUP assay.

Data set [2] has as its target T1, Tyrosine-protein phosphatase non-receptor type 11. Description: Allosteric inhibition of SHP2 in human KYSE-520 cells assessed as inhibition of ERK phosphorylation incubated for 2 hrs by TR-FRET assay. It is filed as cell-based, KYSE-520 cell line.
The subject of data set [3] is KYSE-520 cell line. Put plainly: Antiproliferative activity against EGFR-amplified human KYSE-520 cells assessed as inhibition of cell proliferation incubated for 72 hrs by CellTiter-Glo reagent based luminescence assay. It counts as functional. The note with it: KYSE-520, 72 h. A general note: Cellular ATP, detected with luciferase, serves as a proxy for viable cell number.

The target of data set [4] is Voltage-gated inwardly rectifying potassium channel KCNH2 (Homo sapiens, UniProt Q12809). Put plainly: Displacement of E-4031 from hERG by fluorescence polarization assay. It counts as toxicity. Background: hERG is a cardiac potassium channel; its block is linked to QT prolongation.
Chain of Voltage-gated inwardly rectifying potassium channel KCNH2 (Q12809 whole entry, the tested form may be a part): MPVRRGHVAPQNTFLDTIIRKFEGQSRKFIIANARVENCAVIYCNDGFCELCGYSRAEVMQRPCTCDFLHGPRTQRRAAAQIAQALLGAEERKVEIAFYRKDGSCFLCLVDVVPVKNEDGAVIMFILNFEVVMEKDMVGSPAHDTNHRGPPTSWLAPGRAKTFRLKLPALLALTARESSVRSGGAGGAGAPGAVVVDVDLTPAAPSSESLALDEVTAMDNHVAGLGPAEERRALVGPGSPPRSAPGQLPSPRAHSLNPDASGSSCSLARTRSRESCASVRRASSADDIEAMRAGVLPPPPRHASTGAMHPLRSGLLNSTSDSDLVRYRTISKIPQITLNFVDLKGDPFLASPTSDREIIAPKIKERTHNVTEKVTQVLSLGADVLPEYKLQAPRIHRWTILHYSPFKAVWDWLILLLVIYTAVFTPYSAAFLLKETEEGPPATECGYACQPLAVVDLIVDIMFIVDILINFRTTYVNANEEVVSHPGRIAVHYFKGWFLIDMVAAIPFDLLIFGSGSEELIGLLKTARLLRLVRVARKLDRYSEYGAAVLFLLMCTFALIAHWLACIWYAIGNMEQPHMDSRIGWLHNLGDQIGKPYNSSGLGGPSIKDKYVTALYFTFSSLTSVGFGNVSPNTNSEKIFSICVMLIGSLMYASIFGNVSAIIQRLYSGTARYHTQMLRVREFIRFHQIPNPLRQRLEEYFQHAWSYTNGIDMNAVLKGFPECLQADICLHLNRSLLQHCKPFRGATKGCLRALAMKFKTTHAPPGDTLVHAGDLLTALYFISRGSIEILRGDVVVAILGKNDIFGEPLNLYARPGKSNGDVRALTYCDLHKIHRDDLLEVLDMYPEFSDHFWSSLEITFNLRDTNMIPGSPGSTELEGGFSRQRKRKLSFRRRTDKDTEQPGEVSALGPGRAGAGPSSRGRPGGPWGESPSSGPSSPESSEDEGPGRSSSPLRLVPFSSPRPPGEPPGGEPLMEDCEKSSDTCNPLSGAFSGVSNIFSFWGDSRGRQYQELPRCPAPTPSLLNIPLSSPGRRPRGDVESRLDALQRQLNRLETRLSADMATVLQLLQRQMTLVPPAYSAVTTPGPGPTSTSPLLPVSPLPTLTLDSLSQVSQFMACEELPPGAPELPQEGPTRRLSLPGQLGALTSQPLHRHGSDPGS
Data set [5] addresses T1, Tyrosine-protein phosphatase non-receptor type 11. Put plainly: Binding affinity to N-terminal biotinylated AviTag-G4SG4S-tagged recombinant SHP2 (1 to 525 residues) (unknown origin) by SPR analysis. For orientation: Surface plasmon resonance follows binding to a sensor surface in real time, without labels.
Data set [6] can be described thus: Kinetic solubility of the compound in phosphate buffer saline at pH 7.4 at 200 uM by LC-UV analysis. It counts as physicochemical. The note with it: read-out: Kinetic_solubility.
Data set [7] is described as follows: Intrinsic clearance in human liver microsomes at 1 uM measured for 60 mins in presence of NADPH by LC-MS/MS analysis. The note with it: read-out: CLH. It counts as ADME, Microsome.
Data set [8] in a line: Intrinsic clearance in C57BL/6 mouse liver microsomes at 1 uM measured for 60 mins in presence of NADPH by LC-MS/MS analysis. It is filed as ADME, Microsome. The note with it: read-out: CLH.
Data set [9] is described as follows: Apparent passive permeability of the compound in phosphate buffer saline at pH 7.4 at 5 uM incubated for 4 hrs by PAMPA assay. It counts as ADME.
Data set [10] can be described thus: Drug metabolism in human liver microsomes assessed as oxidised metabolite formation at 1 uM measured after 60 mins in presence of NADPH by MetID study analysis. To be noted: 1 h. It is filed as ADME, Microsome.
The nature of data set [11]: Drug metabolism in human liver microsomes assessed as 1'-(6-((2-(trifluoromethyl)pyridin-3-yl)sulfonyl)-1H-imidazo[4,5-b]pyrazin-2-yl)-1,3-dihydrospiro[indene-2,4'-piperidin]-1-amine formation at 1 uM measured after 60 mins in presence of NADPH by MetID study analysis. It is filed as ADME, Microsome.
The nature of data set [12]: Drug metabolism in C57BL/6 mouse liver microsomes assessed as oxidised metabolite formation at 1 uM measured after 60 mins in presence of NADPH by MetID study analysis. It is filed as ADME, Microsome. To be noted: 1 h.
The nature of data set [13]: Drug metabolism in C57BL/6 mouse liver microsomes assessed as 1'-(6-((2-(trifluoromethyl)pyridin-3-yl)sulfonyl)-1H-imidazo[4,5-b]pyrazin-2-yl)-1,3-dihydrospiro[indene-2,4'-piperidin]-1-amine formation at 1 uM measured after 60 mins in presence of NADPH by MetID study analysis. It is filed as ADME, Microsome.
Data set [14] is described as follows: Half life in Sprague-Dawley rat at 0.5 mg/kg, iv measured for 24 hrs by LC-MS/MS analysis. It is filed as ADME, organism-based. To be noted: in vivo.
Data set [15] can be described thus: Intrinsic clearance in Sprague-Dawley rat at 0.5 mg/kg, iv measured for 24 hrs by LC-MS/MS analysis. It is filed as ADME, organism-based. The note with it: in vivo.
The nature of data set [16]: Volume of distribution at steady state in Sprague-Dawley rat at 0.5 mg/kg, iv measured for 24 hrs by LC-MS/MS analysis. It is filed as ADME, organism-based. To be noted: in vivo, read-out: Vdss.
A short description of data set [17]: Intrinsic clearance in BALB/c mouse at 1 mg/kg, iv measured for 24 hrs by LC-MS/MS analysis. It is filed as ADME, organism-based. The note with it: in vivo.
A short description of data set [18]: Volume of distribution at steady state in BALB/c mouse at 1 mg/kg, iv measured for 24 hrs by LC-MS/MS analysis. It counts as ADME, organism-based. The note with it: in vivo, read-out: Vdss.
A short description of data set [19]: Half life in BALB/c mouse at 1 mg/kg, iv measured for 24 hrs by LC-MS/MS analysis. It counts as ADME, organism-based. The note with it: in vivo.
Data set [20] can be described thus: Oral bioavailability in BALB/c mouse at 50 mg/kg measured for 24 hrs by LC-MS/MS analysis. It is filed as ADME, organism-based. The note with it: in vivo.

Regarding `CC1(N)CCN(c2cnc(Sc3cccnc3C(F)(F)F)c(N)n2)CC1`, the IC50 in data set [1] worked out at 142 nM.
On to `CC1(N)CCN(c2nc3ncc(Sc4cccnc4C(F)(F)F)nc3[nH]2)CC1`, for which the IC50 in data set [1] is 74 nM. Moreover, the concentration for a half-maximal effect (EC50) in data set [2] is 1760 nM.
Take `CC1(N)CCN(c2nc3ncc(Sc4cccnc4C(F)(F)F)cc3[nH]2)CC1`: the 50% inhibitory concentration (IC50) in [1] was more than 33000 nM.
Still for that read-out and setting: the figure for `N[C@@H]1CCCC12CCN(c1nc3nc(Sc4cccnc4C(F)(F)F)cnc3[nH]1)CC2` is 290 nM; for `CC1(N)CCN(c2nc3ncc(Oc4cccc(Cl)c4Cl)nc3[nH]2)CC1` it is 521 nM; for `NC1CCN(c2nc3nc(Sc4cccnc4C(F)(F)F)cnc3[nH]2)CC1` it is 664 nM.
As for `Nc1nccc(Sc2cnc3[nH]c(N4CCC5(CC4)Cc4ccccc4[C@H]5N)nc3n2)c1Cl`, the IC50 turned out to be 4 nM in data set [1] and 900 nM in data set [4]. Also, the EC50 amounted to 75 nM in data set [2] and 598 nM in [3].
As to `CC1(N)CCN(c2nc3cnc(Sc4cccnc4C(F)(F)F)nc3[nH]2)CC1`, in [1], the IC50 was 808 nM.
In the case of `N[C@@H]1c2ccccc2CC12CCN(c1nc3nc(Sc4cccnc4C(F)(F)F)cnc3[nH]1)CC2`, the 50% inhibitory concentration (IC50) in data set [1] stood at 5 nM; in data set [4], 1800 nM. Moreover, the figures for the concentration giving a half-maximal response (EC50) in data set [2] and in data set [3] were 42 nM and 547 nM, respectively. Further, the dissociation constant (Kd) in data set [5] was found to be 0.6 nM. The solubility kinetic at 200 µM in data set [6] is 154 µM (≈ 76.6 µg/mL). Besides, the CLint scaled at 1 µM in [7] was 74 mL/min/kg; in data set [8], 297 mL/min/kg. The Papp at 4 h, 5 µM in [9] is 0.027 ×10⁻⁶ cm/s. Moreover, the Drug metabolism result in data set [10], in data set [11], in data set [12] and in data set [13] was “Metabolite_Detected” throughout. Moreover, the half-life in data set [14] is 0.4 h. This compound came in with a CL in data set [15] of 24 mL/min/kg. Further, the Vd in data set [16] stood at 0.4 L/kg.
On to `CNC1CCN(c2nc3nc(Sc4cccnc4C(F)(F)F)cnc3[nH]2)CC1`, for which, in [1], the IC50 worked out at 1180 nM.
In the case of `CNc1nccc(Sc2cnc3[nH]c(N4CCC5(CC4)Cc4ccccc4[C@H]5N)nc3n2)c1Cl`, the IC50 was 6 nM in [1] and 4200 nM in [4]. The EC50 in data set [2] came out at 37 nM; in data set [3], 520 nM. Moreover, the apparent permeability (Papp) at 4 h, 5 µM in [9] worked out at 0.02 ×10⁻⁶ cm/s. Moreover, the half-life in [14] was more than 2.3 h; in [19], more than 4 h. Further, the CL in data set [15] worked out at 17 mL/min/kg; in data set [17], 14 mL/min/kg. Also, the figures for the Vd in data set [16] and in data set [18] were 1.9 L/kg and 1.8 L/kg, respectively. The compound further gave a bioavailability in [20] of 7%.
As for `CC1(N)CCN(c2nc3ncc(Sc4cccnc4C(F)(F)F)nc3s2)CC1`, in data set [1], the concentration for half-maximal inhibition (IC50) is more than 64000 nM.
Same read-out and setting: the figure for `Cc1nc2nc(N3CCC(C)(N)CC3)[nH]c2nc1Sc1cccc(Cl)c1Cl` is 436 nM; for `Cn1c(N2CCC(C)(N)CC2)nc2nc(Sc3cccnc3C(F)(F)F)cnc21` it is 409 nM.
On the same count and under the same terms, the figure for `CC1(N)CCN(c2nc3ccc(Sc4cccnc4C(F)(F)F)cc3[nH]2)CC1` is more than 16000 nM.
Turning to `N[C@@H]1c2ccccc2CC12CCN(c1nc3nc(Sc4ccncc4Cl)cnc3[nH]1)CC2`, the IC50 in [1] stood at 3 nM; in data set [4], 3100 nM. Further, the values for the half-maximal effective concentration (EC50) in [2] and in data set [3] were 51 nM and 325 nM, respectively.
Take `CC1(N)CCN(c2nc3nc(Sc4cccnc4C(F)(F)F)cnc3s2)CC1`: in data set [1], the half-maximal inhibitory concentration (IC50) was determined as 887 nM.
The same measure, in the same setting: the figure for `CC1(N)CCN(c2nc3ncc(Sc4cccc(Cl)c4Cl)nc3[nH]2)CC1` is 47 nM.
In the case of `C[C@@H]1OCC2(CCN(c3nc4nc(Sc5cccnc5C(F)(F)F)cnc4[nH]3)CC2)[C@@H]1N`, the IC50 in data set [1] was determined as 64 nM. Besides, the concentration giving a half-maximal response (EC50) in data set [2] is 2850 nM.
Take `CC1(N)CCN(c2nc3ncc(-c4cccc(Cl)c4Cl)nc3[nH]2)CC1`: the half-inhibitory concentration (IC50) in data set [1] was found to be 797 nM.
Still for that read-out and setting: the figure for `Cn1c(N2CCC(C)(N)CC2)nc2ncc(Sc3cccnc3C(F)(F)F)nc21` is 1360 nM.
The same measure, in the same setting: the figure for `NC1CCCN(c2nc3nc(Sc4cccnc4C(F)(F)F)cnc3[nH]2)C1` (stereo unspecified) is 435 nM.

As usually defined, the IC50 is the concentration that inhibits the measured activity by half. The term EC50 denotes the concentration needed to bring the measured effect to its halfway point. As a reminder, the Kd is the constant that tells how readily two partners part at equilibrium. One may read the Papp as the rate of passage across a membrane or cell layer, normalised by area and donor concentration. In general, half-life refers to how long it takes for the measured level to halve. Low readings indicate rapid decline, high ones slow decline. Usually bioavailability stands for dose-corrected exposure relative to a reference, in per cent.
